Counter-ions that a name gives are not always drawn.
Assays:
[1] = test system: MCF7-Cas9; assay: Growth suppression assay (resazurin); format: cell-based; conditions: 48 hours of incubation
Protocol: (§1) Breast, colon, ovarian, cervical, liver and lung carcinoma cell lines were grown in DMEM supplemented with 10% FBS, and antibiotics were cultured at 37 °C and 5% CO2. […] To obtain an oxygen concentration of 0.05%, the cells were flushed with the premixed gas continuously throughout the experiment.
(§2) Cells were grown in 96-well plates at a density of 3000 cells per well with or without doxycycline and treated with compounds. After 48 hours of incubation the proliferative cell reagent resazurin (Thermo Fisher Scientific) was added to the cells. The degree of resazurin reduction, which reflects cell viability, was measured by microplate reader by monitoring the absorbance at 570 nm and 600 nm, according to the manufacturer.

[2] = test system: HCT116-Cas9; assay: Growth suppression assay (resazurin); format: cell-based; conditions: 48 hours of incubation
Protocol: as §1, §2

[3] = Solubility (solvent); format: physicochemical; conditions: solvent named in the table
[4] = target: TrxRl (Homo sapiens, UniProt Q16881); conditions: cell extracts and crystal structure of tetrameric TrxRl; earlier publication of the applicants; cited from earlier work
Chain of TrxRl (Q16881 151-649): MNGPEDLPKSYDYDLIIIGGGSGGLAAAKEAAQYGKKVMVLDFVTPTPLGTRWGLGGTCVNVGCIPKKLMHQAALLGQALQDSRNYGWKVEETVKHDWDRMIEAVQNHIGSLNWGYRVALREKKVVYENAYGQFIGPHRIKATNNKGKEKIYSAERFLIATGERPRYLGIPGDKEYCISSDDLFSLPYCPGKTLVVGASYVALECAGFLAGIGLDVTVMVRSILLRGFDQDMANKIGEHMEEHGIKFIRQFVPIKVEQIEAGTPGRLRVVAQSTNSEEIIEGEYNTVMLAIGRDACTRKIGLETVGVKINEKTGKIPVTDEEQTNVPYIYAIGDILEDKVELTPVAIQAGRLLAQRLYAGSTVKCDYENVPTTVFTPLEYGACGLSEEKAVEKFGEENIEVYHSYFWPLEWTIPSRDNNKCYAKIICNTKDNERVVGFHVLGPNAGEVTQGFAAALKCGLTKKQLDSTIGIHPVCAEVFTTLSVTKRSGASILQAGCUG

N#Cc1c(-c2ccncc2)[n+]([O-])c2cc(N3CCOCC3)c(F)cc2[n+]1[O-] [1a*MsOH, 7-Fluoro-6-(morpholin-4-yl)-3-(pyridin-4-yl)quinoxaline-2-carbonitrile-1,4-dioxide methanesulfonate]
IC50 ([1]; methanesulfonate): 2.4 µM | IC50 ([2]; methanesulfonate): 1.2 µM

N#Cc1c(-c2ccncc2)[n+]([O-])c2cc(F)c(N3CCOCC3)cc2[n+]1[O-] [1b*HCl, 6-Fluoro-7-(morpholin-4-yl)-3-(pyridin-4-yl)quinoxaline-2-carbonitrile-1,4-dioxide hydrochloride]
IC50 ([1]; hydrochloride): 3.8 µM | IC50 ([2]; hydrochloride): 3.2 µM

N#Cc1c(-c2ccncc2)[n+]([O-])c2cc(F)c(N3CCOCC3)cc2[n+]1[O-] [1b*MsOH, 6-Fluoro-7-(morpholin-4-yl)-3-(pyridin-4-yl)quinoxaline-2-carbonitrile-1,4-dioxide methanesulfonate]
IC50 ([1]; methanesulfonate): 4.2 µM

N#Cc1c(-c2cccnc2)[n+]([O-])c2cc(N3CCOCC3)c(F)cc2[n+]1[O-] [1c*HCl, 7-Fluoro-6-(morpholin-4-yl)-3-(pyridin-3-yl)quinoxaline-2-carbonitrile-1,4-dioxide hydrochloride]
IC50 ([1]; 48 h): > 10 µM | IC50 ([2]; hydrochloride): 10.9 µM

N#Cc1c(-c2ccncc2)[n+]([O-])c2cc(N3CCOCC3)c(F)cc2[n+]1[O-] [Compound 1a, 7-Fluoro-6-(morpholin-4-yl)-3-(pyridin-4-yl)quinoxaline-2-carbonitrile 1,4-dioxide]
IC50 [1]: 6.9 µM | IC50 [2]: 3.5 µM | Solubility [3]: Warm DMSO

N#Cc1c(-c2ccncc2)[n+]([O-])c2cc(F)c(N3CCOCC3)cc2[n+]1[O-] [Compound 1b, 6-Fluoro-7-(morpholin-4-yl)-3-(pyridin-4-yl)quinoxaline-2-carbonitrile-1,4-dioxide]
IC50 ([1]; 48 h): 4.1 µM | IC50 ([2]; 48 h): 2.8 µM | Solubility [3]: Warm DMSO

N#Cc1c(-c2cccnc2)[n+]([O-])c2cc(N3CCOCC3)c(F)cc2[n+]1[O-] [Compound 1c, 7-Fluoro-6-(morpholin-4-yl)-3-(pyridin-3-yl)quinoxaline-2-carbonitrile-1,4-dioxide]
IC50 [2]: 3.3 µM | Solubility [3]: Warm DMSO

N#Cc1c(-c2cccnc2)[n+]([O-])c2cc(F)c(N3CCOCC3)cc2[n+]1[O-] [Compound 1d, 6-Fluoro-7-(morpholin-4-yl)-3-(pyridin-3-yl)quinoxaline-2-carbonitrile-1,4-dioxide]
IC50 [2]: 4.1 µM | Solubility [3]: Warm DMSO

N#Cc1c(-c2cccnc2)[n+]([O-])c2cc(F)c(N3CCCC3)cc2[n+]1[O-] [Compound 1f, 6-Fluoro-7-(pyrrolidin-1-yl)-3-(pyridin-3-yl)quinoxaline-2-carbonitrile-1,4-dioxide]
IC50 ([1]; 48 h): 3.8 µM | IC50 ([2]; 48 h): 2.2 µM | Solubility [3]: Warm DMSO

N#Cc1c(-c2cccnc2)[n+]([O-])c2cc(F)c(N3CCCCC3)cc2[n+]1[O-] [Compound 1g, 6-Fluoro-7-(piperidin-1-yl)-3-(pyridin-3-yl)quinoxaline-2-carbonitrile-1,4-dioxide]
IC50 ([1]; 48 h): 4.1 µM | IC50 ([2]; 48 h): 2.8 µM | Solubility [3]: Warm DMSO

OCc1ccc(-c2ccc(-c3ccc(CO)s3)o2)s1 [RITA]
covalent link between TrxRl subunits [4]: induced the formation of a covalent link between two oxidized Trp114 residues
